Reference: US12637424B2, “Pharmaceutical salt of an arylpyrrole derivative” (SENTINEL ONCOLOGY LIMITED, priority 2020, dated 2026)

Legend:
Assay in all cases: DiscoverX KinomeScreen competition binding assay (kinase selectivity panel)
[1] = target: T1, panel of ninety-seven kinases (Homo sapiens, UniProt Q8NI60); conditions: CABC1; screened at 3000 nM
T1 construct: purchased DiscoverX; host or cells: E. coli (BL21-derived, T7 phage display) or HEK-293
Method: (§1) This has been investigated by testing atropisomer A-2 for off-target activity against a panel of ninety-seven kinases distributed across the kinome at a concentration of 3 μM using the DiscoverX KinomeScreen assay. The DiscoverX KinomeScreen assay is a site-directed competition binding assay which measures the binding affinity of a compound to a kinase, by use of a solid supported control compound which can bind or capture the kinases in solution. In the absence of a kinase-inhibitor test compound, all of the kinase will bind to the solid support. If a kinase-inhibitor test compound is added to the assay mix, the amount of kinase binding to the solid support will be reduced, the extent of reduction being dependent on the potency of the test compound as a kinase inhibitor. […] For most assays, kinase-tagged T7 phage strains were grown in parallel in 24-well blocks in an E. coli host derived from the BL21 strain. E. coli were grown to log-phase and infected with T7 phage from a frozen stock (multiplicity of infection=0.4) and incubated with shaking at 32° C. until lysis (90-150 minutes). The lysates were centrifuged (6,000×g) and filtered (0.2 μm) to remove cell debris. The remaining kinases were produced in HEK-293 cells and subsequently tagged with DNA for qPCR detection. Streptavidin-coated magnetic beads were treated with biotinylated small molecule ligands for 30 minutes at room temperature to generate affinity resins for kinase assays. The liganded beads were blocked with excess biotin and washed with blocking buffer (SeaBlock (Pierce), 1% BSA, 0.05% Tween 20, 1 mM DTT) to remove unbound ligand and to reduce non-specific phage binding. […] Test compounds were prepared as 40× stocks in 100% DMSO and directly diluted into the assay. All reactions were performed in polypropylene 384-well plates in a final volume of 0.02 ml. […] The beads were then re-suspended in elution buffer (1×PBS, 0.05% Tween 20, 0.5 μM non-biotinylated affinity ligand) and incubated at room temperature with shaking for 30 minutes. The kinase concentration in the eluates was measured by qPCR. Compounds that bind the kinase active site and directly (sterically) or indirectly (allosterically) prevent kinase binding to the immobilized ligand, will reduce the amount of kinase captured on the solid support. […] The strength of binding of the test molecule to the kinase can be expressed as the percent control (% Ctrl) The compound(s) were screened at 3000 nM concentration, and results for primary screen binding interactions are reported as ‘% Ctrl’, where lower numbers indicate stronger hits in the matrix on the following page(s). [formula] • negative control=DMSO (100% Ctrl) • positive control=control compound (0% Ctrl)

[2] = target: T2, panel of ninety-seven kinases (Homo sapiens, UniProt Q00536); conditions: CDK16; screened at 3000 nM
T2 construct: purchased DiscoverX; host or cells: E. coli (BL21-derived, T7 phage display) or HEK-293
Method: as §1

[3] = target: T3, panel of ninety-seven kinases (Homo sapiens, UniProt P27361); conditions: MAPK3; screened at 3000 nM
T3 construct: purchased DiscoverX; host or cells: E. coli (BL21-derived, T7 phage display) or HEK-293
Method: as §1

[4] = target: T4, panel of ninety-seven kinases (Homo sapiens, UniProt P80192); conditions: MAP3K9; screened at 3000 nM
T4 construct: purchased DiscoverX; host or cells: E. coli (BL21-derived, T7 phage display) or HEK-293
Method: as §1

[5] = target: T5, panel of ninety-seven kinases (Homo sapiens, UniProt P04049); conditions: RAF1; screened at 3000 nM
T5 construct: purchased DiscoverX; host or cells: E. coli (BL21-derived, T7 phage display) or HEK-293
Method: as §1

[6] = target: T6, panel of ninety-seven kinases (Homo sapiens, UniProt P07949); conditions: RET; screened at 3000 nM
T6 construct: purchased DiscoverX; host or cells: E. coli (BL21-derived, T7 phage display) or HEK-293
Method: as §1

[7] = target: T7, panel of ninety-seven kinases (Homo sapiens, UniProt Q9UM73); conditions: ALK; screened at 3000 nM
T7 construct: purchased DiscoverX; host or cells: E. coli (BL21-derived, T7 phage display) or HEK-293
Method: as §1

[8] = target: T8, panel of ninety-seven kinases (Homo sapiens, UniProt O15111); conditions: CHUK; screened at 3000 nM
T8 construct: purchased DiscoverX; host or cells: E. coli (BL21-derived, T7 phage display) or HEK-293
Method: as §1

[9] = target: T9, panel of ninety-seven kinases (Homo sapiens, UniProt P24941); conditions: CDK2; screened at 3000 nM
T9 construct: purchased DiscoverX; host or cells: E. coli (BL21-derived, T7 phage display) or HEK-293
Method: as §1

[10] = target: T10, panel of ninety-seven kinases (Homo sapiens, UniProt P11309); conditions: PIM1; screened at 3000 nM
T10 construct: purchased DiscoverX; host or cells: E. coli (BL21-derived, T7 phage display) or HEK-293
Method: as §1

[11] = target: T11, panel of ninety-seven kinases (Homo sapiens, UniProt Q9H4B4); conditions: PLK3; screened at 3000 nM
T11 construct: purchased DiscoverX; host or cells: E. coli (BL21-derived, T7 phage display) or HEK-293
Method: as §1

[12] = target: T12, panel of ninety-seven kinases (Homo sapiens, UniProt P16234); conditions: PDGFRA; screened at 3000 nM
T12 construct: purchased DiscoverX; host or cells: E. coli (BL21-derived, T7 phage display) or HEK-293
Method: as §1

[13] = target: T13, panel of ninety-seven kinases (Homo sapiens, UniProt P07333); conditions: CSF1R; screened at 3000 nM
T13 construct: purchased DiscoverX; host or cells: E. coli (BL21-derived, T7 phage display) or HEK-293
Method: as §1

[14] = target: T14, panel of ninety-seven kinases (Homo sapiens, UniProt P31749); conditions: AKT1; screened at 3000 nM
T14 construct: purchased DiscoverX; host or cells: E. coli (BL21-derived, T7 phage display) or HEK-293
Method: as §1

[15] = target: T15, panel of ninety-seven kinases (Homo sapiens, UniProt P31751); conditions: AKT2; screened at 3000 nM
T15 construct: purchased DiscoverX; host or cells: E. coli (BL21-derived, T7 phage display) or HEK-293
Method: as §1

[16] = target: T16, panel of ninety-seven kinases (Homo sapiens, UniProt P48730); conditions: CSNK1D; screened at 3000 nM
T16 construct: purchased DiscoverX; host or cells: E. coli (BL21-derived, T7 phage display) or HEK-293
Method: as §1

[17] = target: T17, panel of ninety-seven kinases (Homo sapiens, UniProt P35968); conditions: KDR; screened at 3000 nM
T17 construct: purchased DiscoverX; host or cells: E. coli (BL21-derived, T7 phage display) or HEK-293
Method: as §1

[18] = target: T18, panel of ninety-seven kinases (Homo sapiens, UniProt P06213); conditions: INSR; screened at 3000 nM
T18 construct: purchased DiscoverX; host or cells: E. coli (BL21-derived, T7 phage display) or HEK-293
Method: as §1

[19] = target: T19, panel of ninety-seven kinases (Homo sapiens, UniProt Q9UPE1); conditions: SRPK3; screened at 3000 nM
T19 construct: purchased DiscoverX; host or cells: E. coli (BL21-derived, T7 phage display) or HEK-293
Method: as §1

[20] = target: T20, panel of ninety-seven kinases (Homo sapiens, UniProt P50613); conditions: CDK7; screened at 3000 nM
T20 construct: purchased DiscoverX; host or cells: E. coli (BL21-derived, T7 phage display) or HEK-293
Method: as §1

[21] = target: T21, panel of ninety-seven kinases (Homo sapiens, UniProt P36896); conditions: ACVR1B; screened at 3000 nM
T21 construct: purchased DiscoverX; host or cells: E. coli (BL21-derived, T7 phage display) or HEK-293
Method: as §1

[22] = target: T22, panel of ninety-seven kinases (Homo sapiens, UniProt P52333); conditions: JAK3; screened at 3000 nM
T22 construct: purchased DiscoverX; host or cells: E. coli (BL21-derived, T7 phage display) or HEK-293
Method: as §1

% Ctrl @ 3 μM [1]: 63 % Ctrl
% Ctrl @ 3 μM [2]: 100 % Ctrl
% Ctrl @ 3 μM [3]: 99 % Ctrl
% Ctrl @ 3 μM [4]: 96 % Ctrl
% Ctrl @ 3 μM [5]: 92 % Ctrl
% Ctrl @ 3 μM [6]: 95 % Ctrl
% Ctrl @ 3 μM [7]: 89 % Ctrl
% Ctrl @ 3 μM [8]: 100 % Ctrl
% Ctrl @ 3 μM [9]: 94 % Ctrl
% Ctrl @ 3 μM [10]: 99 % Ctrl
% Ctrl @ 3 μM [11]: 87 % Ctrl
% Ctrl @ 3 μM [12]: 100 % Ctrl
% Ctrl @ 3 μM [13]: 100 % Ctrl
% Ctrl @ 3 μM [14]: 98 % Ctrl
% Ctrl @ 3 μM [15]: 100 % Ctrl
% Ctrl @ 3 μM [16]: 91 % Ctrl
% Ctrl @ 3 μM [17]: 100 % Ctrl
% Ctrl @ 3 μM [18]: 100 % Ctrl
% Ctrl @ 3 μM [19]: 71 % Ctrl
% Ctrl @ 3 μM [20]: 100 % Ctrl
% Ctrl @ 3 μM [21]: 96 % Ctrl
% Ctrl @ 3 μM [22]: 100 % Ctrl
SMILES: CN(C)CCNC(=O)c1ccc(-c2ccc(-c3ccc(Cl)cc3)n2-c2ccccc2C(F)(F)F)cc1 (single isomer, unassigned) [Atropisomer A-2]
